How the values were obtained:
[1] = tested on: peripheral blood lymphocytes; assay: In vivo: Blood Lymphocyte Depletion; conditions: rats, p.o.
Method: B. In vivo: Blood Lymphocyte Depletion
A compound of formula I or the vehicle is administered orally by gavage to rats. Tail blood for hematological monitoring is obtained on day −1 to give the baseline individual values, and at 2, 6, 24, 48 and 72 hours after application. In this assay, the compounds of formula I deplete peripheral blood lymphocytes when administered at a dose of 0.03 to 3 mg/kg. For example, following results are obtained: depletion of peripheral blood lymphocytes by more than 50%.

[2] = biological target: T1, human S1P receptor EDG-8 (S1P5) (Homo sapiens, UniProt Q9H228); assay: S1P receptor profiling, GTP[γ-35S] binding SPA, S1P5; format: biochemical; conditions: for S1P5 mode of action: Agon = agonist; for EC50: GTP[γ-35S] binding to membranes of transfected CHO or RH7777 cells
T1 construct: expressed in transfected cells
Method: (§1) Sphingosine-1-phosphate (S1P) Receptor Profiling
(§2) Agonist activities of compounds are tested on the human S1P receptors EDG-1 (S1P1), EDG-3 (S1P3), EDG-5 (S1P2), EDG-6 (S1P4) and EDG-8 (S1P5). […] The assay technology used is SPA (scintillation proximity based assay). Briefly, DMSO dissolved compounds are serially diluted and added to SPA-bead (Amersham-Pharmacia) immobilised S1P receptor expressing membrane protein (10-20 μg/well) in the presence of 50 mM Hepes, 100 mM NaCl, 10 mM MgCl2, 10 μM GDP, 0.1% fat free BSA and 0.2 nM GTP [γ-^35S] (1200 Ci/mmol). After incubation in 96 well microtiterplates at RT for 120 min, unbound GTP [γ-^35S] is separated by a centrifugation step. Luminescence of SPA beads triggered by membrane bound GTP [γ-^35S] is quantified with a TOPcount plate reader (Packard). EC50s are calculated using standard curve fitting software. In this assay, the compounds of formula I have a binding affinity to S1P1 receptor <50 nM.

[3] = biological target: T2, human S1P receptor EDG-6 (S1P4) (Homo sapiens, UniProt O95977); assay: S1P receptor profiling, GTP[γ-35S] binding SPA, S1P4; format: biochemical; conditions: for S1P4 mode of action: Agon = agonist; for EC50: GTP[γ-35S] binding to membranes of transfected CHO or RH7777 cells
T2 construct: expressed in transfected cells
T2 sequence (O95977 1-384): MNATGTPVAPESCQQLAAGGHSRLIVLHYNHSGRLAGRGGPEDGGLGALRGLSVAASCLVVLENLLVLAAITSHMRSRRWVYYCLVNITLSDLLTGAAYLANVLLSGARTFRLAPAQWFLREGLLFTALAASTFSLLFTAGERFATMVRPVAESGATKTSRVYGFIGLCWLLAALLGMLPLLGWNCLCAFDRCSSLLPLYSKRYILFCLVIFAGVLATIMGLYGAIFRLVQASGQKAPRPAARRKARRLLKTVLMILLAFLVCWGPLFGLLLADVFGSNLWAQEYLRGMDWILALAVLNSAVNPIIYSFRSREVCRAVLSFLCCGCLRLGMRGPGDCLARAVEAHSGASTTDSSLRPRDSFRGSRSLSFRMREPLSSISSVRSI
Method: as §1, §2

[4] = biological target: T3, human S1P receptor EDG-1 (S1P1) (Homo sapiens, UniProt P21453); assay: S1P receptor profiling, GTP[γ-35S] binding SPA, S1P1; format: biochemical; conditions: for S1P1 mode of action: Agon = agonist; for EC50: GTP[γ-35S] binding to membranes of transfected CHO or RH7777 cells
T3 construct: expressed in transfected cells
Method: as §1, §2

[5] = biological target: T4, human S1P receptor EDG-3 (S1P3) (Homo sapiens, UniProt Q99500); assay: S1P receptor profiling, GTP[γ-35S] binding SPA, S1P3; format: biochemical; conditions: for S1P3 mode of action: Agon = agonist; for EC50: GTP[γ-35S] binding to membranes of transfected CHO or RH7777 cells
T4 construct: expressed in transfected cells
Method: as §1, §2

T3 sequence (P21453 whole entry): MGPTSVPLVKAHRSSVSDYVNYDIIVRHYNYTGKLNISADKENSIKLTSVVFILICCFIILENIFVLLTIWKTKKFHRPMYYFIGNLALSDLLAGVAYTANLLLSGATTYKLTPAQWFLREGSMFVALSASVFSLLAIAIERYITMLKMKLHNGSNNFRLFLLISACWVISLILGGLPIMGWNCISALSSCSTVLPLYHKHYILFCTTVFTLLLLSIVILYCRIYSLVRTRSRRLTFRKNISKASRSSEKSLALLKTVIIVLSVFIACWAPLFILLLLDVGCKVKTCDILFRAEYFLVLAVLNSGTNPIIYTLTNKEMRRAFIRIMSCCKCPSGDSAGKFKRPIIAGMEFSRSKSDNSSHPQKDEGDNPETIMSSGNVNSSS
T4 sequence (Q99500 whole entry): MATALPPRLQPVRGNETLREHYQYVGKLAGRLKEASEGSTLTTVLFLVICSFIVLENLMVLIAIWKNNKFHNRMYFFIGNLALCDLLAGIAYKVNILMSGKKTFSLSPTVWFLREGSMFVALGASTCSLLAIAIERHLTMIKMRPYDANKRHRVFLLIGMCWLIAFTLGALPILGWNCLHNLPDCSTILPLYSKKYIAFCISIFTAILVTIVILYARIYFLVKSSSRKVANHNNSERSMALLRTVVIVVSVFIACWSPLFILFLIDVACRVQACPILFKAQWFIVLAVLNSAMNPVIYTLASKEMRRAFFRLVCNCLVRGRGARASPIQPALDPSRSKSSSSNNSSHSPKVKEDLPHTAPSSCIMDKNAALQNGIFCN
T1 sequence (Q9H228 whole entry): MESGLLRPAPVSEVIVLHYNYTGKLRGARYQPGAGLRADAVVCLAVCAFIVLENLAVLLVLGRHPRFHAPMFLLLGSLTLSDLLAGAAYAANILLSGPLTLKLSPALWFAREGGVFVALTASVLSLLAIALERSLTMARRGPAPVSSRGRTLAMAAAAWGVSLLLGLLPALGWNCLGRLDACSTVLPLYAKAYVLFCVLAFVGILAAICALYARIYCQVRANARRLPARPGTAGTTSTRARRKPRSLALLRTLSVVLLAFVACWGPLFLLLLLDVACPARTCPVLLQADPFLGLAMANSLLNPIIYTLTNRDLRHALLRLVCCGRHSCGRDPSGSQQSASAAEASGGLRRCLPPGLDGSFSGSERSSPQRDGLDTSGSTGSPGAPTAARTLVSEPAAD

| Structure (SMILES) | dose giving depletion of peripheral blood lymphocytes by more than 50% ([1]; after 6 h) | dose giving depletion of peripheral blood lymphocytes by more than 50% ([1]; after 24 h) | dose giving depletion of peripheral blood lymphocytes by more than 50% ([1]; after 48 h) [mg/kg after 48 h] | S1P5 mode of action [2] | EC50 [2] [nM] | S1P4 mode of action [3] | EC50 [3] [nM] | melting point [°C] | S1P1 mode of action [4] | EC50 [4] [nM] | S1P3 mode of action [5] | EC50 [5] [nM] |
| --- | --- | --- | --- | --- | --- | --- | --- | --- | --- | --- | --- | --- |
| CCCCCOc1ccc2cc(CC[C@@](C)(N)CO)ccc2c1 [Example 1, (R)-2-amino-2-methyl-4-(6-pentyloxynaphthalen-2-yl)butan-1-ol] | 0.02 mg/kg p.o. after 6 h, | 0.3 mg/kg p.o. after 24 h, | >1 | – | – | – | – | – | – | – | – | – |
| CCCCCOc1ccc2cc(CC[C@@](C)(N)COP(=O)(O)O)ccc2c1 [Example 12, Phosphoric acid mono-[(R)-2-amino-2-methyl-4-(6-pentyloxynaphthalen-2-yl)but-1-yl]ester] | – | – | – | Agon | 0.1 | Agon | 0.4 | 266 to 267 | Agon | 0.3 | Agon | 8.4 |
| C[C@@](N)(CCc1ccc2cc(OCCCC(F)(F)C(F)(F)F)ccc2c1)COP(=O)(O)O [Example 13] | – | – | – | Agon | 0.4 | Agon | 1.2 | – | Agon | 0.06 | Agon | 5.7 |
| CCCOc1ccc2cc(CC[C@@](C)(N)COP(=O)(O)O)ccc2c1 [Example 14] | – | – | – | Agon | 0.8 | Agon | 1 | – | Agon | 2.8 | inverse | 47 |
| C[C@](N)(CO)CCc1ccc2oc(-c3ccc4c(c3)OCO4)nc2c1 [Example 25, (R)-2-Amino-4-(2-benzo[1,3]dioxol-5-yl-benzoxazol-5-yl)-2-methyl-butan-1-ol] | 0.06 mg/kg p.o. after 6 h | – | 0.3 | – | – | – | – | – | – | – | – | – |
| CCOc1cccc(-c2nc3cc(CC[C@@](C)(N)CO)ccc3o2)c1 [Example 26, (R)-2-Amino-4-[2-(3-ethoxy-phenyl)-benzoxazol-5-yl]-2-methyl-butan-1-ol] | 0.03 mg/kg p.o. after 6 h | – | 0.2 | – | – | – | – | – | – | – | – | – |
| C[C@](N)(CO)CCc1ccc2oc(-c3ccccc3)cc2c1 [Example 37, (R)-2-Amino-2-methyl-4-(2-phenyl-benzofuran-5-yl)-butan-1-ol] | 0.40 mg/kg p.o. after 6 h | – | – | – | – | – | – | – | – | – | – | – |
| CCCCCc1nc2cc(CC[C@@](C)(N)COP(=O)(O)O)ccc2o1 [Example 42, Phosphoric acid mono-[(R)-2-amino-2-methyl-4-(2-pentyl-benzoxazol-5-yl)-butyl]ester] | – | – | – | Agon | 5 | Agon | 9 | – | Agon | 17 | Agon | > 1000 |
| C[C@@](N)(CCc1ccc2oc(-c3ccccc3)cc2c1)COP(=O)(O)O [Example 49, Phosphoric acid mono-[(R)-2-amino-2-methyl-4-(2-phenyl-benzofuran-5-yl)-butyl]ester] | – | – | – | Agon | 0.4 | Agon | 0.7 | – | Agon | 1.6 | Agon | 1180 |

— US7825260B2, “Aminopropanol derivatives as sphingosine-1-phosphate receptor modulators” (Novartis AG, priority 2003, dated 2010)
